Data published in ChEMBL document CHEMBL1201862, “PubChem BioAssay data set” (2004).
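A five-concentration, 48-hour dose response in 96-well plates underlies each endpoint, interpolated linearly between surrounding concentrations. GI50 = concentration required for 50% inhibition of growth.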 The source made the active and inactive calls. Rule as the data show it: active = GI50 up to about 1.1 µM and inactive = higher.

What was measured:
Assay in all cases: growth of human tumour cells (NCI), 48 h
ACHN = system: ACHN
CCRF-CEM = system: CCRF-CEM
OVCAR-3 = system: OVCAR-3
UACC-257 = system: UACC-257
SN12C = system: SN12C
MCF7 = system: MCF7
HCC 2998 = system: HCC 2998
OVCAR-8 = system: OVCAR-8
A498 = system: A498
K562 = system: K562
HOP-92 = system: HOP-92
SF-268 = system: SF-268
DU-145 = system: DU-145
TK-10 = system: TK-10
SW-620 = system: SW-620
NCI-H23 = system: NCI-H23
SR = system: SR
MDA-MB-231 = system: MDA-MB-231
EKVX = system: EKVX
CAKI-1 = system: CAKI-1

SMILES | GI50 (ACHN) | GI50 (CCRF-CEM) | GI50 (OVCAR-3) | GI50 (UACC-257) | GI50 (SN12C) | GI50 (MCF7) | GI50 (HCC 2998) | GI50 (OVCAR-8) | GI50 (A498) | GI50 (K562) | GI50 (HOP-92) | GI50 (SF-268) | GI50 (DU-145) | GI50 (TK-10) | GI50 (SW-620) | GI50 (NCI-H23) | GI50 (SR) | GI50 (MDA-MB-231) | GI50 (EKVX) | GI50 (CAKI-1)
N=C(N)SCc1ccc(Cl)cc1Cl.O=[N+]([O-])c1c(O)c(Cl)cc(Cl)c1Cl | 10.7 µM (inactive) | 3.18 µM (inactive) | 13.1 µM (inactive) | 7.73 µM (inactive) | 11.9 µM (inactive) | 11.5 µM (inactive) | 8.18 µM (inactive) | 24.3 µM (inactive) | 13.3 µM (inactive) | 4.35 µM (inactive) | 11.5 µM (inactive) | 17 µM (inactive) | 13.5 µM (inactive) | 6.18 µM (inactive) | 15.2 µM (inactive) | 13.4 µM (inactive) | 5.21 µM (inactive) | 10.7 µM (inactive) | 15.3 µM (inactive) | 11 µM (inactive)
O=C(O)CC1(C(=O)O)CCCCC1 | > 100 µM (inactive) | > 100 µM (inactive) | > 100 µM (inactive) | > 100 µM (inactive) | > 100 µM (inactive) | > 100 µM (inactive) | > 100 µM (inactive) | > 100 µM (inactive) | > 100 µM (inactive) | > 100 µM (inactive) | > 100 µM (inactive) | > 100 µM (inactive) | > 100 µM (inactive) | > 100 µM (inactive) | > 100 µM (inactive) | > 100 µM (inactive) | > 100 µM (inactive) | > 100 µM (inactive) | > 100 µM (inactive) | > 100 µM (inactive)
C/C(=N\NC(=S)Nc1ccc(C)cc1)c1nc2cccnc2[nH]1 | 1.44 µM (inactive) | 0.452 µM (active) | 0.483 µM (active) | 2.38 µM (inactive) | 2.32 µM (inactive) | 0.721 µM (active) | 5.47 µM (inactive) | 3.05 µM (inactive) | 7.71 µM (inactive) | 2.9 µM (inactive) | 6.38 µM (inactive) | 0.587 µM (active) | 2.59 µM (inactive) | 2.67 µM (inactive) | 3.57 µM (inactive) | 2.65 µM (inactive) | 0.849 µM (active) | 1.17 µM (inactive) | 0.61 µM (active) | 1.84 µM (inactive)
C=CCN1C(=O)CC(=O)N(NC2=NNC3(C(=O)N2)c2ccccc2-c2ccccc23)C1=S | 34.4 µM (inactive) | 34 µM (inactive) | 28.4 µM (inactive) | 27.5 µM (inactive) | 37.2 µM (inactive) | 25.8 µM (inactive) | 38.6 µM (inactive) | 29.2 µM (inactive) | 34.8 µM (inactive) | 31.5 µM (inactive) | 15.4 µM (inactive) | 51.3 µM (inactive) | 44.5 µM (inactive) | 64.1 µM (inactive) | 38.5 µM (inactive) | 29.2 µM (inactive) | 15.6 µM (inactive) | > 100 µM (inactive) | 29.4 µM (inactive) | 48.3 µM (inactive)
N=C(N)NS(=O)(=O)c1ccc(NC(=O)c2cccc3c(O)c4ccccc4nc23)cc1 | > 100 µM (inactive) | 28.9 µM (inactive) | > 100 µM (inactive) | > 100 µM (inactive) | > 100 µM (inactive) | > 100 µM (inactive) | > 71.8 µM (inactive) | 71.1 µM (inactive) | > 76.4 µM (inactive) | 44 µM (inactive) | 56.2 µM (inactive) | > 100 µM (inactive) | > 100 µM (inactive) | 54.8 µM (inactive) | > 100 µM (inactive) | > 92.3 µM (inactive) | > 74.8 µM (inactive) | > 100 µM (inactive) | > 100 µM (inactive) | > 100 µM (inactive)
CC(C)(C)OC(=O)NCC(O)CNC(=O)OC(C)(C)C | > 100 µM (inactive) | > 100 µM (inactive) | > 100 µM (inactive) | > 100 µM (inactive) | > 100 µM (inactive) | > 100 µM (inactive) | > 100 µM (inactive) | > 100 µM (inactive) | > 100 µM (inactive) | > 100 µM (inactive) | > 100 µM (inactive) | > 100 µM (inactive) | > 100 µM (inactive) | > 100 µM (inactive) | > 100 µM (inactive) | > 100 µM (inactive) | > 100 µM (inactive) | > 100 µM (inactive) | > 100 µM (inactive) | > 100 µM (inactive)
CC(=O)C1(C)CC(C#N)(C#N)C(C#N)=C1N (stereo not given) | > 100 µM (inactive) | > 100 µM (inactive) | > 100 µM (inactive) | > 100 µM (inactive) | > 100 µM (inactive) | > 100 µM (inactive) | > 100 µM (inactive) | > 100 µM (inactive) | > 100 µM (inactive) | > 100 µM (inactive) | 21 µM (inactive) | > 100 µM (inactive) | > 100 µM (inactive) | > 100 µM (inactive) | > 100 µM (inactive) | > 100 µM (inactive) | 56.2 µM (inactive) | > 100 µM (inactive) | 26.5 µM (inactive) | 66.8 µM (inactive)
N#Cc1c(O)c(/C=N/c2ccc(Cl)cc2)c(=O)n2c1[nH]c1ccccc12 | > 100 µM (inactive) | > 100 µM (inactive) | > 100 µM (inactive) | > 100 µM (inactive) | > 100 µM (inactive) | > 100 µM (inactive) | > 100 µM (inactive) | > 100 µM (inactive) | > 100 µM (inactive) | > 100 µM (inactive) | > 100 µM (inactive) | > 100 µM (inactive) | > 100 µM (inactive) | > 100 µM (inactive) | > 100 µM (inactive) | > 100 µM (inactive) | > 100 µM (inactive) | > 100 µM (inactive) | > 100 µM (inactive) | > 100 µM (inactive)
N#C/C(N)=C(\C#N)NC(=O)C(=O)N/C(C#N)=C(\N)C#N | > 100 µM (inactive) | 77.6 µM (inactive) | 13 µM (inactive) | > 100 µM (inactive) | > 100 µM (inactive) | > 100 µM (inactive) | > 100 µM (inactive) | > 100 µM (inactive) | > 100 µM (inactive) | > 100 µM (inactive) | > 100 µM (inactive) | > 100 µM (inactive) | > 100 µM (inactive) | > 100 µM (inactive) | > 100 µM (inactive) | > 100 µM (inactive) | 58.2 µM (inactive) | > 100 µM (inactive) | > 100 µM (inactive) | > 100 µM (inactive)
O=C(NC(N1CCN(c2cc3c(cc2F)c(=O)c(C(=O)O)cn3C2CC2)CC1)(C(F)(F)F)C(F)(F)F)c1ccccc1 | 35.8 µM (inactive) | 24.7 µM (inactive) | 43.5 µM (inactive) | 26.8 µM (inactive) | 36.1 µM (inactive) | 29.8 µM (inactive) | 23.8 µM (inactive) | 46 µM (inactive) | 30.4 µM (inactive) | 39.4 µM (inactive) | 33.8 µM (inactive) | 40.9 µM (inactive) | 62.1 µM (inactive) | 27.4 µM (inactive) | 40.5 µM (inactive) | 25.9 µM (inactive) | 29.8 µM (inactive) | 22.2 µM (inactive) | 35.6 µM (inactive) | 22.9 µM (inactive)
